The subject of the assay is ALP in NHAC (normal human articular chondrocytes). Put plainly: Alkaline Phosphatase (ALP) activity assay: ALP staining and quantitation in NHACs (prevention of chondrocyte hypertrophy). The format is cell-based. The conditions noted are these: Chondrocyte, 288 h, human IL-1 beta 10 ng/mL, 12 days; for pIC50: Fast Blue RR staining, high content imaging; for Emax: read-out: ALP in NHAC (% Efficacy). The procedure, abridged:
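NHACs were plated with test compound in DMEM containing 10% FBS, and human IL-1 beta was added 5 h later at 10 ng/mL final. Cultures were kept 12 days at 37° C, 5% CO2. Cells were then fixed, ALP-stained with Fast Blue RR/Naphthol AS-MX, and hypertrophic cells were imaged and quantified by high-content imaging.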

SMILES strings stand for the structures. pIC50: −log10 of the molar value.

What is called pIC50 is −log10 of the IC50, conventionally taken in molar units.

For `N#Cc1ccc(C(F)(F)F)cc1NC(=O)[C@]12C[C@@]1(c1cccc(C(F)(F)F)c1)[C@H]1O[C@@H]2C[C@@H]1O` (racemic) [Example 80, rac-(1R,2R,4S,5R,6S)—N-(2-cyano-5-(trifluoromethyl)phenyl)-6-hydroxy-4-(3-(trifluoromethyl)phenyl)-8-oxatricyclo[3.2.1.02,4]octane-2-carboxamide], the pIC50 is 5.66 and the Emax was 76%.
Turning to `COc1cc([C@@]23C[C@]2(C(=O)Nc2cc(C(F)(F)F)cc(C)n2)[C@H]2C[C@H](O)[C@@H]3O2)ccn1` (racemic) [Example 24, rac-(1R,2R,4S,5R,6S)-6-hydroxy-4-(2-methoxypyridin-4-yl)-N-(6-methyl-4-(trifluoromethyl)pyridin-2-yl)-8-oxatricyclo[3.2.1.02,4]octane-2-carboxamide], the pIC50 is under 4.52 and the Emax is 25%.
As to `COc1cc([C@@]23C[C@]2(C(=O)Nc2cc(C(F)(F)F)cc(Cl)n2)[C@H]2C[C@H](O)[C@@H]3O2)ccn1` (racemic) [Example 21, rac-(1R,2R,4S,5R,6S)—N-(6-chloro-4-(trifluoromethyl)pyridin-2-yl)-6-hydroxy-4-(2-methoxypyridin-4-yl)-8-oxatricyclo[3.2.1.02,4]octane-2-carboxamide], the pIC50 is under 4.52 and the Emax was 0%.
As for `COc1cc([C@@]23C[C@]2(C(=O)Nc2ccc(OC)c(C(F)(F)F)c2)[C@H]2C[C@H](O)[C@@H]3O2)ccn1` (racemic) [Example 34, rac-(1R,2R,4S,5R,6S)-6-hydroxy-N-(4-methoxy-3-(trifluoromethyl)phenyl)-4-(2-methoxypyridin-4-yl)-8-oxatricyclo[3.2.1.02,4]octane-2-carboxamide], the negative logarithm of the IC50 (pIC50) is under 4.52 and the Emax was 0%.
On the same counts, the results for `COc1cc([C@@]23C[C@]2(C(=O)Nc2cccc(C(F)(F)F)c2)[C@H]2C[C@H](O)[C@@H]3O2)ccn1` (racemic) [Example 26, rac-(1R,2R,4S,5R,6S)-6-hydroxy-4-(2-methoxypyridin-4-yl)-N-(3-(trifluoromethyl)phenyl)-8-oxatricyclo[3.2.1.02,4]octane-2-carboxamide] are under 4.52 and 5%.
The like results for `Cc1cc(C(F)(F)F)cc(NC(=O)[C@]23C[C@@]2(c2ccnc(F)c2)[C@H]2O[C@@H]3C[C@@H]2O)n1` (racemic) [Example 7, rac-(1R,2R,4S,5R,6S)-4-(2-fluoropyridin-4-yl)-6-hydroxy-N-(6-methyl-4-(trifluoromethyl)pyridin-2-yl)-8-oxatricyclo[3.2.1.02,4]octane-2-carboxamide] were, in that order, under 4.52 and 0%.
The like results for `Cn1cc([C@@]23C[C@]2(C(=O)Nc2ccc(N4CCOCC4)c(C(F)(F)F)c2)[C@H]2C[C@H](O)[C@@H]3O2)c(C(F)(F)F)n1` (racemic) [Example 64, rac-(1R,2R,4S,5R,6S)-6-hydroxy-4-(1-methyl-3-(trifluoromethyl)-1H-pyrazol-4-yl)-N-(4-morpholino-3-(trifluoromethyl)phenyl)-8-oxatricyclo[3.2.1.02,4]octane-2-carboxamide] were, in that order, under 4.52 and 28%.
With `O=C(Nc1cc(C(F)(F)F)c(Cl)cn1)[C@]12C[C@@]1(c1ccnc(F)c1)[C@H]1O[C@@H]2C[C@@H]1O` (racemic) [Example 5, rac-(1R,2R,4S,5R,6S)-N-(5-chloro-4-(trifluoromethyl)pyridin-2-yl)-4-(2-fluoropyridin-4-yl)-6-hydroxy-8-oxatricyclo[3.2.1.02,4]octane-2-carboxamide], the pIC50 is under 4.52 and the Emax stood at 38%.
`COc1cc(NC(=O)[C@]23C[C@@]2(c2cn(C)nc2C(F)(F)F)[C@H]2O[C@@H]3C[C@@H]2O)cc(C(F)(F)F)c1` (racemic) [Example 61, rac-(1R,2R,4S,5R,6S)-6-hydroxy-N-(3-methoxy-5-(trifluoromethyl)phenyl)-4-(1-methyl-3-(trifluoromethyl)-1H-pyrazol-4-yl)-8-oxatricyclo[3.2.1.02,4]octane-2-carboxamide]: the pIC50 was under 4.52 and the Emax turned out to be 29%.
For `Cn1cc([C@@]23C[C@]2(C(=O)Nc2cccc(C(F)(F)F)c2)[C@H]2C[C@H](O)[C@@H]3O2)c(C(F)(F)F)n1` (racemic) [Example 49, rac-(1R,2R,4S,5R,6S)-6-hydroxy-4-(1-methyl-3-(trifluoromethyl)-1H-pyrazol-4-yl)-N-(3-(trifluoromethyl)phenyl)-8-oxatricyclo[3.2.1.02,4]octane-2-carboxamide], the pIC50 is under 4.52 and the Emax turned out to be 35%.
For `CCOc1cc(C(F)(F)F)cc(NC(=O)[C@]23C[C@@]2(c2cn(C)nc2C(F)(F)F)[C@H]2O[C@@H]3C[C@@H]2O)n1` (racemic) [Example 48, rac-(1R,2R,4S,5R,6S)—N-(6-ethoxy-4-(trifluoromethyl)pyridin-2-yl)-6-hydroxy-4-(1-methyl-3-(trifluoromethyl)-1H-pyrazol-4-yl)-8-oxatricyclo[3.2.1.02,4]octane-2-carboxamide], the pIC50 is under 4.52 and the Emax is 40%.
In the case of `O=C(Nc1cc(F)cc(C(F)(F)F)c1)[C@]12C[C@@]1(c1ccnc(F)c1)[C@H]1O[C@@H]2C[C@@H]1O` (racemic) [Example 16, rac-(1R,2R,4S,5R,6S)—N-(3-fluoro-5-(trifluoromethyl)phenyl)-4-(2-fluoropyridin-4-yl)-6-hydroxy-8-oxatricyclo[3.2.1.02,4]octane-2-carboxamide], the negative logarithm of the IC50 (pIC50) is under 4.52 and the Emax worked out at 34%.

Values taken from patent US12365692B2, “6-hydroxy-8-oxatricyclo[3.2.1.02,4]octane-2-carboxamide derivatives for inducing chondrogenesis for treating joint damage” (NOVARTIS AG, priority 2018, dated 2025).
